Reference: PubChem BioAssay (NCI)
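Tested at 5 concentrations; 48 h exposure; 96-well plates; endpoints linearly interpolated, else capped at highest concentration. TGI: concentration producing complete growth inhibition.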

Legend:
Assay in all cases: DTP human tumour cell line panel, 48 h
MDA-N = tested on: MDA-N
ACHN renal = tested on: ACHN renal
786-0 renal = tested on: 786-0 renal
EKVX NSCLC = tested on: EKVX NSCLC
KM12 colon = tested on: KM12 colon
SF-539 CNS = tested on: SF-539 CNS
SK-MEL-5 melanoma = tested on: SK-MEL-5 melanoma
CCRF-CEM leukemia = tested on: CCRF-CEM leukemia
SF-268 CNS = tested on: SF-268 CNS
NCI-H522 lung = tested on: NCI-H522 lung
A549 NSCLC = tested on: A549 NSCLC
MALME-3M melanoma = tested on: MALME-3M melanoma

Compound | TGI (MDA-N) [µM] | TGI (ACHN renal) [µM] | TGI (786-0 renal) [µM] | TGI (EKVX NSCLC) [µM] | TGI (KM12 colon) [µM] | TGI (SF-539 CNS) [µM] | TGI (SK-MEL-5 melanoma) [µM] | TGI (CCRF-CEM leukemia) [µM] | TGI (SF-268 CNS) [µM] | TGI (NCI-H522 lung) [µM] | TGI (A549 NSCLC) [µM] | TGI (MALME-3M melanoma) [µM]
COc1cc(OC2OC(CO)C(O)C(O)C2O)c2c(c1)O[C@@H]1[C@H](O)Oc3cc(OC)c(OC)cc3[C@]1(O)C2=O (stereo partly specified) | > 25 | > 25 | > 25 | > 25 | > 25 | > 25 | > 25 | > 25 | > 25 | > 25 | > 25 | 
Fc1cc2nc3n(c2cc1F)C(c1c(Cl)cccc1Cl)SC3 (stereo unspecified) | 29.5 | 31.7 | 28.3 | 32.5 | 26.2 | 37.1 | 20.4 |  | 34.4 | 35.1 | 28 | 33.8
Nc1nc(Cc2ccccc2)nc(Cc2ccccc2)c1-c1ccccc1 | 38.8 | > 100 | 70.5 | > 100 | 75 |  | 29.2 |  | 85.9 | 46.1 | > 100 | 50.2
C[C@H](CO)C1=CC(C#C[Si](C)(C)C)N(C(=O)Oc2ccccc2)c2ccccc21 (stereo partly specified) | 13.3 | 26.8 | 27.2 | 29.1 | 21.8 | 33.9 | 26.6 | 53.1 | 27.6 | 15.7 | 26.8 | 
COC(=O)/C=C/c1cnc2c(c1)oc(=O)n2C | > 100 | > 100 | > 100 | > 100 | > 100 | > 100 | > 100 | > 100 | > 100 |  | > 100 | > 100
CCSc1nc(C)nc2c1sc1nc3ccccc3n12 | > 100 | > 100 | > 100 | > 100 | > 100 | > 100 | > 100 | > 100 | > 100 | > 100 | > 100 | 
CC(C)(C)C(=O)CC(=O)C(F)(F)C(F)(F)C(F)(F)F.[Ag] | 29 | 28.7 | 33 | 55.3 | 50.8 | 57.6 | 21.3 | 43.8 | 40.3 |  | > 100 | 45.4
